Assay results taken from patent publication US20140051744A1, “Markers For Assessing the Susceptibility of Cancer to Survivin-Targeting miRNA Treatment” (The Regents of the University of Colorado, A Body Corporate, priority 2012, published 2014).

Tests used:
[1] = system: miR-203 and miR-542-3p expression levels; assay: qRT-PCR (TaqMan miRNA assays) of miRNA levels after mimic transfection; format: cell-based, human; conditions: SKBR3.B3.1 and SKBR3.B3.2 cells, 24 hrs, normalized to RNU6B, vs control mimic
Description: (§1) FIGS. 1A-B. Transfection of the mimics of miR-203 and/or miR-542-3p dramatically increases their expression levels and specifically down-regulates Survivin, but not other functionally related molecules, such as Mcl-1 and Bcl-xL. SKBR3.B3.1 and […] cells were transfected with either control miRNA mimic, or miR-203 mimic, or miR-542-3p mimic alone, or the combination of miR-203 and miR-542-3p mimics for 24 hrs. (FIG. 1A) Cells were collected and subjected to total RNA extraction, inclusive of the small RNA fraction. The expression levels of miR-203 and miR-542-3p were measured by qRT-PCR using TaqMan miRNA assays. All results were normalized with the internal control RNU6B. Bars, SD. […] (FIG. 1B) Cells were collected and subjected to western blot analyses with specific antibodies directed against Survivin, Mcl-1, Bcl-xL, or β-actin. The densitometry analyses of Survivin signals were shown underneath, and the arbitrary numbers indicate the intensities of each cell line relative to controls, defined as 1.0.
Analysis of miRNA expression. […] The expression levels of miR-203 and miR-542-3p were then measured by quantitative real-time (qRT)-PCR using TaqMan MicroRNA Assays (Assay ID: 000507 and 001284, respectively; Applied Biosystems). […] The relative miRNA levels were calculated using the comparative Ct method (AACt) as reported (Howe et al., 2011). […]

[2] = system: Survivin; assay: Western blot of Survivin protein after miRNA mimic transfection in erbB2+ breast cancer cells; format: cell-based, human; conditions: mimic transfection 24 hrs
Description: as §1
MDA-MB-453 and BT474 cells (FIG. 2A), and BT474-HR20 cells (FIG. 2B) were transfected with either control miRNA mimic, or miR-203 mimic, or miR-542-3p mimic alone, or the combination of miR-203 and miR-542-3p mimics for 24 hrs. Cells were then collected and subjected to western blot analyses with specific antibodies directed against Survivin, Mcl-1, Bcl-xL, or β-actin. The densitometry analyses of Survivin signals were shown underneath, and the arbitrary numbers indicate the intensities of each cell line relative to controls, defined as 1.0.
(§2) Transfection of cells with miRNA mimic. Cell transfection with the miRIDIAN miRNA mimics or negative controls was carried out using HiPerFect Transfection Reagent (QIAGEN) according to the manufacturer's protocol.
(§3) Western blot analysis. Protein expression levels were determined by western blot analysis as described previously (Wang et al., 2010; Huang et al., 2009; Huang et al., 2011). Equal amounts of total cell lysates were boiled in Laemmli SDS-sample buffer, resolved by SDS-PAGE, transferred to nitrocellulose membrane (Bio-Rad Laboratories, Hercules, Calif.), and probed with the primary antibodies described in the figure legends. After the blots were incubated with horseradish peroxidase-labeled secondary antibody, the signals were detected using the enhanced chemiluminescence reagents (GE Healthcare Bio-Sciences Corp., Piscataway, N.J.).

[3] = system: Mcl-1; assay: Western blot of Mcl-1 protein after miRNA mimic transfection; format: cell-based, human; conditions: SKBR3.B3.1 and SKBR3.B3.2 cells, mimic transfection 24 hrs
Description: as §1, with “The densitometry analyses of Survivin signals were shown underneath, and the arbitrary numbers indicate the intensities of each cell line relative to controls, defined as 1.0.” left out
(§4) Western blot analysis. Protein expression levels were determined by western blot analysis as described previously (Wang et al., 2010; Huang et al., 2009; Huang et al., 2011). […] After the blots were incubated with horseradish peroxidase-labeled secondary antibody, the signals were detected using the enhanced chemiluminescence reagents (GE Healthcare Bio-Sciences Corp., Piscataway, N.J.).

[4] = system: Bcl-xL; assay: Western blot of Bcl-xL protein after miRNA mimic transfection; format: cell-based, human; conditions: SKBR3.B3.1 and SKBR3.B3.2 cells, mimic transfection 24 hrs
Description: as §1, with “The densitometry analyses of Survivin signals were shown underneath, and the arbitrary numbers indicate the intensities of each cell line relative to controls, defined as 1.0.” left out
as §4

[5] = system: PARP cleavage and caspase-3 activation; assay: Western blot of PARP cleavage and cleaved caspase-3 after mimic transfection plus paclitaxel; format: cell-based, human; conditions: SKBR3.B3.1 and SKBR3.B3.2 cells, mimic 24 hrs then paclitaxel 24 hrs; for paclitaxel-induced PARP cleavage and caspase-3 activation (cleaved caspase-3): vs paclitaxel alone in control mimic transfection
Description: (FIGS. 3A-B) SKBR3.B3.1 and SKBR3.B3.2 cells were transfected with either control miRNA mimic, or miR-203 mimic, or miR-542-3p mimic alone, or the combination of miR-203 and miR-542-3p mimics for 24 hrs. Cells were then untreated or treated with paclitaxel for another 24 hrs. Cells were collected and subjected to western blot analyses of PARP, cleaved caspase-3 (C-Caps-3), β-actin (FIG. 3A), or a specific apoptotic ELISA (FIG. 3B). C & D, BT474-HR20 cells were transfected with either control miRNA mimic, or miR-203 mimic, or miR-542-3p mimic alone, or the combination of miR-203 and miR-542-3p mimics for 24 hrs. Cells were then untreated or treated with paclitaxel for another 24 hrs. Cells were collected and subjected to western blot analyses of PARP, cleaved caspase-3 (C-Caps-3), or β-actin (FIG. 3C), or a specific apoptotic ELISA (FIG. 3D).
as §2, §3

[6] = system: Survivin; conditions: cells transfected with miR-542-3p mimics vs negative control-transfected cells; cited from earlier work
[7] = system: cancer cell proliferation; conditions: ectopic expression; through G1 and G2/M cell cycle arrest; cited from earlier work
[8] = system: 18rRNA; conditions: overexpression of miR-542-3p; cited from earlier work
[9] = system: Src-transformed fibroblasts and human cancer cells; conditions: ectopic expression in Src-transformed fibroblasts and human cancer cells; cited from earlier work
[10] = system: HCC cells; conditions: expression of miR-203 in HCC cells lacking their expression; cited from earlier work
[11] = MDA-MB-453, BT474 and BT474-HR20 cells
[12] = SKBR3.B3.1 and SKBR3.B3.2 cells, vs control mimic

| Substance | expression levels of miR-203 and/or miR-542-3p following mimic(s) transfection [1] | protein levels of Survivin [2, 11] | inhibition on Survivin compared with the other single mimic ([2]; SKBR3.B3.1 and SKBR3.B3.2 cells) | protein levels of Survivin [2, 12] | effect on MCl-1 protein [3] | effect on BCl-xL protein [4] | enhancement of paclitaxel-induced PARP cleavage and caspase-3 activation compared with the other single mimic [5] | paclitaxel-induced PARP cleavage and caspase-3 activation (cleaved caspase-3) [5] | gene down-regulation in microarray analysis [6] | cancer cell proliferation [7] | 18rRNA levels [8] | tumor growth [9] | cell growth [10] |
| --- | --- | --- | --- | --- | --- | --- | --- | --- | --- | --- | --- | --- | --- |
| miR-542-3p: miRIDIAN miRNA specific mimic of miR-542-3p (sequence UGUGACAGAUUGAUAACUGAAA, MIMAT0003389), purchased from Thermo Scientific Dharmacon (commercial miRIDIAN mimic, chemistry not given here) | dramatically increased | able to down-regulate Survivin | more profound inhibition on Survivin than miR-203 | clearly reduced the protein levels of Survivin | no effect | no effect | more profound effects than miR-203 | clearly enhanced paclitaxel-induced PARP cleavage | most down-regulated candidate gene was Survivin | inhibited cancer cell proliferation | significantly decreased | suppresses tumor growth |  |
| miR-203: miRIDIAN miRNA specific mimic of miR-203 (sequence GUGAAAUGUUUAGGACCACUAG, MIMAT0000264), purchased from Thermo Scientific Dharmacon (commercial miRIDIAN mimic, chemistry not given here) | dramatically increased | able to down-regulate Survivin |  | clearly reduced the protein levels of Survivin | no effect | no effect |  | clearly enhanced paclitaxel-induced PARP cleavage |  |  |  |  | inhibited cell growth |
